In ChEMBL document CHEMBL5465560, “Selectivity Literature for EUbOPEN Chemogenomic Library” (2024):
One block for each compound: values may come before it.

Columns and labels:
[1] = molecular target: T1, Non-receptor tyrosine-protein kinase TNK1 (Homo sapiens) (UniProt Q13470); conditions: at 10 µM
T1 sequence (whole entry): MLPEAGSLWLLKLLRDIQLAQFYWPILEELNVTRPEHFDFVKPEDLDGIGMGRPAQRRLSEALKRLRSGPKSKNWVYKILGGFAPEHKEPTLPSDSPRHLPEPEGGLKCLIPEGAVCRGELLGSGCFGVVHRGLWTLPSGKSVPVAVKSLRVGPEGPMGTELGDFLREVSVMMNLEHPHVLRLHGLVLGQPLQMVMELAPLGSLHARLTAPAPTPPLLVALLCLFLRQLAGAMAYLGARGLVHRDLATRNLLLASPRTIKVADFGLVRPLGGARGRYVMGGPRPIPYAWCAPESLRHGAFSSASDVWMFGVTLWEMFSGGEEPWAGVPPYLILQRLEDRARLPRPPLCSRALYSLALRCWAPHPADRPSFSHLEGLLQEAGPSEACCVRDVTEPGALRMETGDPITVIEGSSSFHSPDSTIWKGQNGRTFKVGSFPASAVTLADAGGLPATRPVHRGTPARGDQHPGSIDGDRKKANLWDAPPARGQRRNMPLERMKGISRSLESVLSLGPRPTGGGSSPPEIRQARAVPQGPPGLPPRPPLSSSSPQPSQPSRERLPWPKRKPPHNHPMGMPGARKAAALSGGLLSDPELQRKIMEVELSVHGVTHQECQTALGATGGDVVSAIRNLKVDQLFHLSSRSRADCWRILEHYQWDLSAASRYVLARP

[2] = molecular target: T2, Serine/threonine-protein kinase Sgk1 (Homo sapiens) (UniProt O00141); experiment: Selectivity interaction (KinomeScan (DiscoverX)) EUB0001079a SGK1; conditions: at 1 µM
T2 sequence (whole entry): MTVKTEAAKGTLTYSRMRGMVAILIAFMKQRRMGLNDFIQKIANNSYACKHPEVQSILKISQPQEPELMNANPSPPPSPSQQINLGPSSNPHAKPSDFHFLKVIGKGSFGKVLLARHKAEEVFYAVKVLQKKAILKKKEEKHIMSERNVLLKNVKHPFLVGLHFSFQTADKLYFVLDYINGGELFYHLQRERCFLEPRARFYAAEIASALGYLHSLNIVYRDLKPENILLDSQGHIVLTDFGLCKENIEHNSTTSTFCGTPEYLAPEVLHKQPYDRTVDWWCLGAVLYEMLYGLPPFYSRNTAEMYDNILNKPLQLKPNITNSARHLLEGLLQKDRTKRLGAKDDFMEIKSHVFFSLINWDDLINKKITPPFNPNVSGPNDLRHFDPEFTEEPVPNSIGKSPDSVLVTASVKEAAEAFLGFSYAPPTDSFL

[3] = molecular target: Serine/threonine-protein kinase VRK2 (Homo sapiens) (UniProt Q86Y07); experiment: Selectivity interaction (KinomeScan (DiscoverX)) EUB0000618a VRK2; conditions: at 10 µM
[4] = molecular target: Tyrosine-protein kinase JAK1 (Homo sapiens, UniProt P23458); experiment: Selectivity interaction (NanoBRET assay (HEK293T cells)) EUB0001558a JAK1; assay type: cell-based, HEK-293T
[5] = molecular target: Homeodomain-interacting protein kinase 3 (Homo sapiens, UniProt Q9H422); experiment: Selectivity interaction (KinomeScan (DiscoverX)) EUB0000045b HIPK3
[6] = Selectivity interaction (ActivX KiNativ screen (kinase selectivity in THP-1 cell lysates)) EUB0000639a STLK6; conditions: Selectivity number of off-targets 5; Selectivity number of targets 283; Source Knowledge https://pubmed.ncbi.nlm.nih.gov/28498658/; at 5 µM
[7] = molecular target: Cyclin-dependent kinase 5 (Homo sapiens, UniProt Q00535); experiment: Selectivity interaction (ActivX KiNativ screen (kinase selectivity in THP-1 cell lysates)) EUB0000639a CDK5; assay type: subcellular; conditions: lysate, at 0.01 µM
[8] = molecular target: Serine/threonine-protein kinase pim-3 (Homo sapiens) (UniProt Q86V86); experiment: Selectivity interaction (KinomeScan (DiscoverX)) EUB0001049a PIM3; conditions: at 1 µM
[9] = molecular target: T3, Tyrosine-protein kinase ZAP-70 (Homo sapiens, UniProt P43403); experiment: Selectivity interaction (Kinase panel (33PanQinase(R) Activity Assay)) EUB0000877a ZAP70
T3 sequence (P43403 whole entry): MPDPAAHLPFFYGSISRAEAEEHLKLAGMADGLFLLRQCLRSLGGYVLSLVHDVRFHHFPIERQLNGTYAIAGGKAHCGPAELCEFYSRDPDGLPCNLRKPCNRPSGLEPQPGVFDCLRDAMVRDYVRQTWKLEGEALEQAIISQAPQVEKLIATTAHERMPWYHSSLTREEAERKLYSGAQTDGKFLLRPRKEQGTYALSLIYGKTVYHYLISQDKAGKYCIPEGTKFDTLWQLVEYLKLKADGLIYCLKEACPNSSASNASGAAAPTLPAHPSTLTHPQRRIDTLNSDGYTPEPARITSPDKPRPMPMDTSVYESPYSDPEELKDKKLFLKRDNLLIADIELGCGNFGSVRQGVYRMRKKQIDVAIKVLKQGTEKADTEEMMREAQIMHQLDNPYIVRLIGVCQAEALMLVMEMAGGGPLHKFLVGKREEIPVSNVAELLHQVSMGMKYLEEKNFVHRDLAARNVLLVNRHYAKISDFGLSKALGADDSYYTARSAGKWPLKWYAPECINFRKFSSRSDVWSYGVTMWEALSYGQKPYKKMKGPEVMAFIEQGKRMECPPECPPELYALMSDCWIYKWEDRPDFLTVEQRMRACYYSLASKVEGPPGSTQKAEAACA

[10] = molecular target: Dual specificity protein kinase CLK2 (Homo sapiens, UniProt P49760); experiment: Selectivity interaction (KinomeScan (DiscoverX)) EUB0000092b CLK2; conditions: at 10 µM
[11] = molecular target: Bromodomain-containing protein 4 (Homo sapiens, UniProt O60885); experiment: Selectivity interaction (Human bromodomain panel (DSF assay)) EUB0000233b BRD4
[12] = molecular target: Ribosomal protein S6 kinase alpha-4 (Homo sapiens) (UniProt O75676); experiment: Selectivity interaction (KinomeScan (DiscoverX)) EUB0000311b RPS6KA4; conditions: at 1 µM
[13] = molecular target: Hepatocyte growth factor receptor (Homo sapiens, UniProt P08581); experiment: Selectivity interaction (Rxn Biology Kinase assay) EUB0001632a MET; conditions: at 10 µM
Chain of Hepatocyte growth factor receptor (P08581 whole entry): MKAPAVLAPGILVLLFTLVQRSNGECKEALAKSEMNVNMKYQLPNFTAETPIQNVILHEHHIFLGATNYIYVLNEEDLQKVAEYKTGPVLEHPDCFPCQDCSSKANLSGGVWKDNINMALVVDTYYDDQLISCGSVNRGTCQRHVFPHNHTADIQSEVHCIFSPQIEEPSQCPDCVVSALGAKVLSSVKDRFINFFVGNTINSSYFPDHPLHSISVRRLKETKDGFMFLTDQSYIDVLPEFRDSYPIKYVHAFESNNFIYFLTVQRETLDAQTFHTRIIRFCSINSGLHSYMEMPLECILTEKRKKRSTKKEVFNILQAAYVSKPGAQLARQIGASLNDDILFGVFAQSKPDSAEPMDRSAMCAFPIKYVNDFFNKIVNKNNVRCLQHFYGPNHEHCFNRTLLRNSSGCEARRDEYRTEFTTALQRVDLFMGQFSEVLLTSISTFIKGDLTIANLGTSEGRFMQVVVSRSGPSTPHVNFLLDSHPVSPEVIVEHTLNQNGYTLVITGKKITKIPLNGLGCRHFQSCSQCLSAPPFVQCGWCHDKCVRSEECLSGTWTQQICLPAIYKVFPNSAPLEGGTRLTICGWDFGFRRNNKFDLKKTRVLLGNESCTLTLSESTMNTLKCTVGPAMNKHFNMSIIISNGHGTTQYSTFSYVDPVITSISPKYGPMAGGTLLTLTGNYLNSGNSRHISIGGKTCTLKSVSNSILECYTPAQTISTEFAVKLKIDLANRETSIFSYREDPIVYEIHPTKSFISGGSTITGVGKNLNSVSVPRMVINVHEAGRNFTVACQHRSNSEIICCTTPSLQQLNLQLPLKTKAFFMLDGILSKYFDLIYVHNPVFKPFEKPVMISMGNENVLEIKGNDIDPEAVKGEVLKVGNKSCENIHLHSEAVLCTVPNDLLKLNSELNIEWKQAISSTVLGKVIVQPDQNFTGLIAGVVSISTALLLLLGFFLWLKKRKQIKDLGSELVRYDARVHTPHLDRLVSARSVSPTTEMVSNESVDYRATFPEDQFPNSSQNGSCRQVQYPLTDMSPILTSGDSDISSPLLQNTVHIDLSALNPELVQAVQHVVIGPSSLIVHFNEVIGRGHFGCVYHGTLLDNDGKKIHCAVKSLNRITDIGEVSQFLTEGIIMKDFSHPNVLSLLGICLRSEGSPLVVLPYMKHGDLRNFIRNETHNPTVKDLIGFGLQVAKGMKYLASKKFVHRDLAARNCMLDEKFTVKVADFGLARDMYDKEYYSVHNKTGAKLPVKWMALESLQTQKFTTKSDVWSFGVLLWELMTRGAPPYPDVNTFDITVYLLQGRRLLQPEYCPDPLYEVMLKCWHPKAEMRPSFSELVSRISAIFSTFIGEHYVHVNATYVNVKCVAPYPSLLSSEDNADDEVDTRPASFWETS

Chain of Homeodomain-interacting protein kinase 3 (Q9H422 whole entry, looked up): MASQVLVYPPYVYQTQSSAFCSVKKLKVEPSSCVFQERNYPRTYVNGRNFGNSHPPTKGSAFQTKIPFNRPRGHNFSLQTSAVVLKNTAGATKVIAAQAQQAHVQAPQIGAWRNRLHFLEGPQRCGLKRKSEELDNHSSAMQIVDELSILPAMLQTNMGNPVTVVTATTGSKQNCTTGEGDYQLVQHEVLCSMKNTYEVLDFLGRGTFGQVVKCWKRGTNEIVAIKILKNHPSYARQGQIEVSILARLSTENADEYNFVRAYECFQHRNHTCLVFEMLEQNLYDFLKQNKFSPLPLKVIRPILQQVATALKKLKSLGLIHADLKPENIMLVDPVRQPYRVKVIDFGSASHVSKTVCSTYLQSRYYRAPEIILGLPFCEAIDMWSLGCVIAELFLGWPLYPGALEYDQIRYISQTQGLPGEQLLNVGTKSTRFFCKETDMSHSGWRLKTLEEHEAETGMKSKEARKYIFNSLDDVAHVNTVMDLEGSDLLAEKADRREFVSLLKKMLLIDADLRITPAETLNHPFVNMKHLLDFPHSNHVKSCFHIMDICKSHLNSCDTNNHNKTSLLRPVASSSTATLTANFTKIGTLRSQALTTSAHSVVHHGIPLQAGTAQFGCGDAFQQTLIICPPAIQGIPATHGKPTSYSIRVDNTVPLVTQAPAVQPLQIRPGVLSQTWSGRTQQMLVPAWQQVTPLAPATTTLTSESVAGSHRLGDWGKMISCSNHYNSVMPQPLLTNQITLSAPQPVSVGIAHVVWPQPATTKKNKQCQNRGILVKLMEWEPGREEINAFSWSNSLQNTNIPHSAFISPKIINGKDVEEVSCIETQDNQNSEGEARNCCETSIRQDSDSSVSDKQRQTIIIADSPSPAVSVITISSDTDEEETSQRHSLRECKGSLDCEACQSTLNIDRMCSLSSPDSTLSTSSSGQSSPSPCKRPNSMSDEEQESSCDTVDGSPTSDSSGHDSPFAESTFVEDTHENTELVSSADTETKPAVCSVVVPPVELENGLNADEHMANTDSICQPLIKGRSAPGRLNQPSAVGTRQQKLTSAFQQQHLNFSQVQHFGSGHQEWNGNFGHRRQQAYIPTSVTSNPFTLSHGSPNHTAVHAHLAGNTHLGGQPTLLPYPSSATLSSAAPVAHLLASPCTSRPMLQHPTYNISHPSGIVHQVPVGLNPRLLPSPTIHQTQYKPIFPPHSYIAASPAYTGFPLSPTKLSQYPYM
Chain of Dual specificity protein kinase CLK2 (P49760 whole entry, looked up): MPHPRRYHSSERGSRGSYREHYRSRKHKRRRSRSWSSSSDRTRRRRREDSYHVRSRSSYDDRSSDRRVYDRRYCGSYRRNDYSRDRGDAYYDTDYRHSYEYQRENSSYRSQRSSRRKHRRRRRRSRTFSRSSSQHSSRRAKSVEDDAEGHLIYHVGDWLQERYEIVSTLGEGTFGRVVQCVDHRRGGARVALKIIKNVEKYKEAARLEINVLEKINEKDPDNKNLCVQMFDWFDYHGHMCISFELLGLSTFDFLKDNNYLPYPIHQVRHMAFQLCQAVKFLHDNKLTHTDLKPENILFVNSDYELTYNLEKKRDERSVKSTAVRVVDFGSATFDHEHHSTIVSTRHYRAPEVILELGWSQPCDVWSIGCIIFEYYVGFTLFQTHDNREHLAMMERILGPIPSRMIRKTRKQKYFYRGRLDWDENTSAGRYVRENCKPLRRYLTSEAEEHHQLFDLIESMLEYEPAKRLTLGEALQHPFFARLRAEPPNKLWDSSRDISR
Chain of Serine/threonine-protein kinase VRK2 (Homo sapiens) (Q86Y07 whole entry): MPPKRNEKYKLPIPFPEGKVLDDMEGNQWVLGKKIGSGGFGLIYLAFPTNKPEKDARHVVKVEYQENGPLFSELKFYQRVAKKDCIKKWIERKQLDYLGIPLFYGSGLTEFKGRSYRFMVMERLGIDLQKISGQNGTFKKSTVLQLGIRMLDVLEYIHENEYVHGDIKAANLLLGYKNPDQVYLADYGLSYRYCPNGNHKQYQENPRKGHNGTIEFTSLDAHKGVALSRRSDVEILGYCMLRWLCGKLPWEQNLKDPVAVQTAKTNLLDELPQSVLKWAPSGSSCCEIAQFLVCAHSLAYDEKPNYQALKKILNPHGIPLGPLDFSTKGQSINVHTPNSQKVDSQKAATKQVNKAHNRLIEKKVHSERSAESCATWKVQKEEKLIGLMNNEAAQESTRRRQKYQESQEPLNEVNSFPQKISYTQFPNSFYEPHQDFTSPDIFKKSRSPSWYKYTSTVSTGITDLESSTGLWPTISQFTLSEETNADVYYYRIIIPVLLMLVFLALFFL
Chain of Ribosomal protein S6 kinase alpha-4 (Homo sapiens) (O75676 whole entry, looked up): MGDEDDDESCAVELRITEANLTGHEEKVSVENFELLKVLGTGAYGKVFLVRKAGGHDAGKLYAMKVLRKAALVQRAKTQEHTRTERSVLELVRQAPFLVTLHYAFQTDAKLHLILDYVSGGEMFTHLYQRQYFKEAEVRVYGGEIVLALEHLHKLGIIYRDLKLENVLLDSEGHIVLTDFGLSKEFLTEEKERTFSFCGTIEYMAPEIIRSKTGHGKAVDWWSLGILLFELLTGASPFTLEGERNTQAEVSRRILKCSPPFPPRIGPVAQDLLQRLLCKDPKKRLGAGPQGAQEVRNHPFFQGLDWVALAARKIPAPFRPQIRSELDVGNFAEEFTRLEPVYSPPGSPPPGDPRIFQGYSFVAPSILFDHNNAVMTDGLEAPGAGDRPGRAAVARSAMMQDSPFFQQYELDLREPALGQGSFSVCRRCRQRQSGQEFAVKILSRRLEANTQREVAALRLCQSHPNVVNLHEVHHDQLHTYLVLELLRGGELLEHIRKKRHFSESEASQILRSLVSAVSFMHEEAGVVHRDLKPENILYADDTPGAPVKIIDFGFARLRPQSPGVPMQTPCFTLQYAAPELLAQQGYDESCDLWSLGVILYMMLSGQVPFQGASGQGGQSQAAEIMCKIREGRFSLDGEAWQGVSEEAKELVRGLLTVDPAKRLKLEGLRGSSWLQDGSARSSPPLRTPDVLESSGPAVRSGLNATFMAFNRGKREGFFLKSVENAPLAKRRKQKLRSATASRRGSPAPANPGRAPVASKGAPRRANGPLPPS
Chain of Cyclin-dependent kinase 5 (Q00535 whole entry, looked up): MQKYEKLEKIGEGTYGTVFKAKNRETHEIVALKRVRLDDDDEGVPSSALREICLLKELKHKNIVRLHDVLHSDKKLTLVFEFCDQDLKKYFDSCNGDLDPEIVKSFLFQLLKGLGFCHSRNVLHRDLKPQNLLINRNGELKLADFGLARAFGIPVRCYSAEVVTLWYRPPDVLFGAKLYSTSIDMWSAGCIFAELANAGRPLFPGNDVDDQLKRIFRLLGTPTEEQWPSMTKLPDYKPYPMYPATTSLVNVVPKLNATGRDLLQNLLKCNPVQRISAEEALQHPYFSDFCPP

- % of control [1]: 100%
Structure (SMILES): CCN(CC)CCCCNc1ncc2cc(-c3cc(OC)cc(OC)c3)c(NC(=O)NC(C)(C)C)nc2n1

Structure (SMILES): Nc1cnc(N2CCc3cc(S(=O)(=O)Nc4c(F)cc(Cl)cc4F)cc(N4CCCC4=O)c32)nc1 [TP-020n]
- % of control [2]: 100%

Structure (SMILES): O[C@H]1CC[C@H](Nc2ncc3nc(Nc4c(F)cc(F)cc4F)n([C@H]4CCOC4)c3n2)CC1
- % of control [3]: 100%

Structure (SMILES): CC(C)(O)[C@H](F)CN1Cc2cc(NC(=O)c3cnn4cccnc34)c(N3CCOCC3)cc2C1=O
- EC50 [4]: > 50 µM

Structure (SMILES): C=CC(=O)Nc1cc(-n2c(=O)ccc3cnc4ccc(-c5ccc(NS(C)(=O)=O)cc5)cc4c32)ccc1C
- % of control ([5]; at 1 µM): 100%
- % of control ([5]; at 10 µM): 100%

- % of inhibition [7]: -4.7%
Structure (SMILES): CC[C@@H]1[C@H](F)C(=O)N[C@@H]1COc1nccc2cc(C(N)=O)c(OC)cc12 [ZIMLOVISERTIB]
- % of inhibition [6]: -4.2%

Structure (SMILES): COc1cc(Nc2nc(C)cc(-c3cnn4nc(OC)ccc34)n2)cc(C(F)(F)F)c1
- % of control [8]: 83%

- IC50 [9]: > 10 µM
Structure (SMILES): CCC(=O)N1CC[C@H](Nc2ncnc3c2CN(c2cnc(OC)c(C(F)(F)F)c2)CC3)C1 [LENIOLISIB]

Structure (SMILES): CCC(=O)N1CCN(c2ccc(-n3c(=O)ccc4cnc5ccc(-c6cnc7ccccc7c6)cc5c43)cc2C(F)(F)F)CC1
- % of control [10]: 65%

- dTM [11]: < 2 K
Structure (SMILES): CN(C)CCCOc1ccc(-c2cc(NCCCn3cccn3)nc(S(C)(=O)=O)n2)cc1

- % of control [12]: 8.9%
Structure (SMILES): CCc1ccccc1C(=O)Nc1n[nH]c2c(C)c(F)c(C3C(C#N)=C(C)N(C)C(C)=C3C#N)cc12 [BAY-3827]

- % of inhibition [13]: -31.5%
Structure (SMILES): Cn1cc(-n2cnc3c(NCc4nc5cc(Cl)c(Cl)cc5[nH]4)nc(N4CCOCC4)nc32)cn1
